What was measured:
[1] = tested on: Pseudomonas aeruginosa ATCC 27853; assay: Growth inhibition around wells on LB agar plates; assay type: cell-based; conditions: Ps. aeruginosa ATCC 27853
Experimental: (§1) From an overnight-grown culture of IH3080 on LB agar, a suspension of approx. 10^8 cells/ml was prepared in 0.9% NaCl. Aliquots of this suspension were then pipetted on the agar plates and the plates were gently shaken to spread the suspension evenly on the entire surface of the plate. Thereafter, the unabsorbed part of the suspension was removed by using a Pasteur pipette. After the surface had dried, small wells (diameter, 2 mm) were drilled on the plates (five wells per plate) by using a sterile sharp-edged narrow metal tube, single-use pipette tip, and vacuum suction. An alternative method used a swab to spread the inoculum. Samples (4 μl and 10 μl) of the peptide solution in 0.9% NaCl (at concentrations of 1 μg/ml and 0.1 μg/ml) were then pipetted to the wells and the sample fluids were allowed to absorb. Controls included 0.9% NaCl solution without the compound to be tested. The plates were then incubated for 18 h at 37° C. whereafter the diameters of growth inhibition zones around each well were measured; the diameter of the well itself was not reduced. Finally, the diameters were converted to surface areas of growth inhibition (in square mm).
(§2) Direct antibacterial activity of sixteen NAB compounds against Acinetobacter baumannii ATCC 19606 and Pseudomonas aeruginosa ATCC 27853 was tested by using the susceptibility determination method described in Example 2. Five compounds (NAB7062, NAB734, NAB737, NAB739, and NAB740) had very notable activity against A. baumannii. […] The antibacterial activity of NAB739 and NAB740 were as strong as or even stronger than that of polymyxin B.

E. coli IH3080 [2] = assay: Growth inhibition around wells on LB agar plates; assay type: cell-based, Escherichia coli
Experimental: Peptides synthesized in Example 1, all carrying at least two (2) but not more than three (3) positive charges, were studied for their ability to inhibit the growth of E. coli. This was tested employing LB agar (LB Agar Lennox, Difco, BD, Sparks, Md., U.S.A) plates. The indicator organism E. coli IH3080 (K1:O018) was an encapsulated strain originally isolated from a neonate suffering from meningitis (Vaara et al. 1984) and obtained from National Public Health Institute, Helsinki, Finland.
as §1, with “Samples (4 μl and 10 μl) of the peptide solution in 0.9% NaCl (at concentrations of 1 μg/ml and 0.1 μg/ml) were then pipetted to the wells and the sample fluids were allowed to absorb.” left out

E. coli IH3080 [3] = assay: Sensitization to rifampin: growth inhibition around wells on LB plates containing rifampin; assay type: cell-based, Escherichia coli
Experimental: as §1

[4] = tested on: Acinetobacter baumannii ATCC 19606; assay: Growth inhibition around wells on LB agar plates; assay type: cell-based; conditions: A. baumannii ATCC 19606
Experimental: as §1, with “Samples (4 μl and 10 μl) of the peptide solution in 0.9% NaCl (at concentrations of 1 μg/ml and 0.1 μg/ml) were then pipetted to the wells and the sample fluids were allowed to absorb.” left out
as §2

A. baumannii ATCC 19606 = assay: Sensitization to rifampin: growth inhibition around wells on LB plates containing rifampin; assay type: cell-based, Acinetobacter baumannii; conditions: 4 μg
[5] = tested on: Ps. aeruginosa ATCC 27853; assay: as above; assay type: cell-based, Pseudomonas aeruginosa; conditions: 4 μg
[6] = 4 μg of compound, rifampin 0 μg/ml
[7] = 4 μg of compound, rifampin 1.0 μg/ml
[8] = 4 μg of compound, rifampin 0.1 μg/ml

Substance | growth inhibition around a well ([1]; 4 μg) [square millimeters] | growth inhibition around a well ([1]; 10 μg) [square millimeters] | growth inhibition around a well (E. coli IH3080 [2]; 10 μg of compound per well) [square millimeters] | growth inhibition around a well in the presence of rifampin (E. coli IH3080 [3]; [6]) [square millimeters] | growth inhibition around a well in the presence of rifampin (E. coli IH3080 [3]; [7]) [square millimeters] | growth inhibition around a well ([4]; 4 μg) [square millimeters] | growth inhibition around a well ([4]; 10 μg) [square millimeters] | growth inhibition around a well in the presence of rifampin (A. baumannii ATCC 19606; rifampin 0 μg/ml) [square millimeters] | growth inhibition around a well in the presence of rifampin (A. baumannii ATCC 19606; rifampin 0.1 μg/ml) [square millimeters] | growth inhibition around a well in the presence of rifampin (A. baumannii ATCC 19606; rifampin 0.3 μg/ml) [square millimeters] | growth inhibition around a well in the presence of rifampin ([5]; rifampin 0 μg/ml) [square millimeters] | growth inhibition around a well in the presence of rifampin ([5]; rifampin 0.1 μg/ml) [square millimeters] | growth inhibition around a well in the presence of rifampin ([5]; rifampin 0.3 μg/ml) [square millimeters] | growth inhibition around a well in the presence of rifampin (E. coli IH3080 [3]; [8]) [square millimeters] | growth inhibition around a well (E. coli IH3080 [2]; 4 μg of compound per well) [square millimeters] | growth inhibition around a well in the presence of rifampin (E. coli IH3080 [3]; 10 μg of compound, rifampin 1.0 μg/ml) [square millimeters]
DA-Thr-Abu-cy[Dab-Dab-DPhe-Leu-Dab-Dab-Thr-] [NAB 7062] | 0 | 0 | 99 | 50 | 104 | 13 | 38 | 13 | 50 | 95 | 0 | 0 | 7 |  |  | 
Deacylcolistin [reference compound] |  |  | 95 | 79 | 127 |  |  |  |  |  |  |  |  | 87 |  | 
Deacylpolymyxin B [reference compound] |  |  | 113 | 57 | 127 |  |  |  |  |  |  |  |  | 79 |  | 
MHA-Abu-Thr-Abu-cy[Dab-Dab-DPhe-Leu-Dab-Dab-Thr-] [NAB 707] |  |  | 7 | 5 | 113 |  |  |  |  |  |  |  |  | 87 | 5 | 
MHA-Dab-Thr-Dab-cy[Dab-Dab-DPhe-Leu-Abu-Abu-Thr-] [NAB 721] |  |  | 0 | 0 | 28 |  |  |  |  |  |  |  |  | 13 | 0 | 
MHA-Thr-Abu-cy[Dab-Dab-DPhe-Leu-Dab-Dab-Thr-] [NAB 706] |  |  | 7 | 5 | 133 |  |  |  |  |  |  |  |  | 79 | 5 | 
OA-Abu-cy[Dab-Dab-DPhe-Leu-Dab-Dab-Thr-] [NAB 713] |  |  | 0 | 0 | 38 |  |  |  |  |  |  |  |  | 20 | 0 | 
OA-DAla-DAla-cy[Dab-Dab-DPhe-Leu-Dab-Dab-Thr-] [NAB 733] |  |  | 0 | 0 | 113 |  |  |  |  |  |  |  |  | 95 | 0 | 
OA-Thr-Abu-cy[Dab-Abu-DPhe-Leu-Dab-Dab-Thr-] [NAB 710] |  |  | 7 | 0 | 13 |  |  |  |  |  |  |  |  | 7 | 0 | 
OA-Thr-Abu-cy[Dab-Dab-DPhe-Leu-Dab-Abu-Thr-] [NAB 709] |  |  | 0 | 0 | 13 |  |  |  |  |  |  |  |  | 0 | 0 | 
OA-Thr-Abu-cy[Dab-Lys-DPhe-Leu-Dab-Dab-Thr-] [NAB 731] |  |  | 0 | 0 | 5 |  |  |  |  |  |  |  |  | 0 | 0 | 22
OA-Thr-DThr-cy[Dab-Dab-DPhe-Thr-Dab-Dab-Thr-] [NAB 737] | 0 | 28 |  | 133 | 201 | 38 | 79 | 38 | 201 | 283 | 0 |  | 20 | 177 |  | 
OA-Thr-Dab-cy[Dab-Abu-DPhe-Leu-Dab-Dab-Thr-] [NAB 715] |  |  | 0 | 0 | 33 |  |  |  |  |  |  |  |  | 0 | 0 | 
Polymyxin B heptapeptide [reference compound] |  |  | 0 | 0 | 38 |  |  |  |  |  |  |  |  | 0 | 0 | 
